Earlier results, collected in PMC5849076 (Biochemistry, 2018).

How the values were obtained:
DaCld = DaCld (Dechloromonas aromatica, UniProt Q47CX0)
Sequence of DaCld (Q47CX0 35-282): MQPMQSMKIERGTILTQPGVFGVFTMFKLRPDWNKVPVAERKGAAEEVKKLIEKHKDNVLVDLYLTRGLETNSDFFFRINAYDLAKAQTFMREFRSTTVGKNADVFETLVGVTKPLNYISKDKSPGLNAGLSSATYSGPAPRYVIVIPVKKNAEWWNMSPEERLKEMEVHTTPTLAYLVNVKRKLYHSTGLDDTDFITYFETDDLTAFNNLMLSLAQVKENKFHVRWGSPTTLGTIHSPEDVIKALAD

Substance: chlorite [ClO2^−]
- number of turnovers (KpCld): 6700 ± 300 equivalents ClO2^−/heme
- turnovers prior to irreversible inactivation (DaCld): > 20,000 equivalents of ClO2^− per heme
